Experimental data from patent US8916592B2, “Malononitrile compounds” (Merial Limited, priority 2005, dated 2014).

Experiments:
Assay type in all cases: in vivo
[1] = test system: Mediterranean Fruitfly (Ceratitis capitata); assay: Activity against Mediterranean Fruitfly (eggs sprayed in microtiterplates); conditions: 144 h, 6 days, untreated controls 0% mortality
Protocol: The active compounds were formulated in 1:3 DMSO:water. 50 to 80 eggs were placed into microtiterplates filled with 0.5% agar-agar and 14% diet in water. The eggs were sprayed with 5 μl of the test solution, the plates were sealed with pierced foils and kept at 27-29° C. and 75-85% humidity under fluorescent light for 6 days. Mortality was assessed on the baswas of the agility of the hatched larvae. Tests were replicated 2 times.

[2] = test system: Boll Weevil (Anthonomus grandis); assay: Activity against Boll Weevil (eggs sprayed in microtiterplates); conditions: 3 to 5 days, untreated controls 0% mortality
Protocol: The active compounds were formulated in 1:3 DMSO:water. 10 to 15 eggs were placed into microtiterplates filled with 2% agar-agar in water and 300 ppm formaline. The eggs were sprayed with 20 μl of the test solution, the plates were sealed with pierced foils and kept at 24-26° C. and 75-85% humidity with a day/night cycle for 3 to 5 days. Mortality was assessed on the basis of the remaining unhatched eggs or larvae on the agar surface and/or quantity and depth of the digging channels caused by the hatched larvae. Tests were replicated 2 times.

[3] = test system: Vetch Aphid (Megoura viciae); assay: Activity against Vetch Aphid (sprayed bean leaf disks); conditions: foliar, 144 h, adult aphids, 6 days, untreated controls 0% mortality
Protocol: The active compounds were formulated in 1:3 DMSO:water. Bean leaf disks were placed into microtiterplates filled with 0.8% agar-agar and 2.5 ppm OPUS™. The leaf disks were sprayed with 2.5 μl of the test solution and 5 to 8 adult aphids were placed into the microtiterplates which were then closed and kept at 22-24° C. and 35-45% under fluorescent light for 6 days. Mortality was assessed on the basis of vital, reproduced aphids. Tests were replicated 2 times.

[4] = test system: Brown Planthopper (Nilaparvata lugens); assay: Activity against Brown Planthopper (sprayed rice seedlings); conditions: 300 ppm, 10 adults, recorded after 24, 72 and 120 hours
Protocol: The active compounds were formulated in 50:50 acetone:water. Potted rice seedlings were sprayed with 10 ml test solution, air dried, placed in cages and inoculated with 10 adults. Percent mortality was recorded after 24, 72 and 120 hours.

SMILES | mortality at 2500 ppm [1] [%] | mortality at 2500 ppm [2] [%] | mortality at 2500 ppm [3] [%] | mortality [4]
N#CC(C#N)(CSC(F)(F)F)Cc1ccc(Cl)c(Cl)c1 [Compound I-1, 2-(3,4-dichloro-benzyl)-2-trifluoromethylsulfanylmethyl-malononitrile] | > 75 | > 75 | – | –
N#CC(C#N)(CCSC(F)(F)F)Cc1ccc(Cl)c(Cl)c1 [Compound I-7, 2-(3,4-Dichloro-benzyl)-2-(2-trifluoromethylsulfanyl-ethyl)-malononitrile] | > 75 | > 75 | > 75 | –
N#CC(C#N)(CC[S+]([O-])C(F)(F)F)Cc1ccc(Cl)c(Cl)c1 (stereo not shown) [Compound I-15, 2-(3,4-Dichlorobenzyl)-2-(2-trifluoromethanesulfinyl-ethyl)-malononitrile] | > 75 | > 75 | – | –
N#CC(C#N)(CCS(=O)(=O)C(F)(F)F)Cc1ccc(Cl)c(Cl)c1 [Compound I-19, 2-(3,4-Dichlorobenzyl)-2-(2-trifluoromethanesulfonyl-ethyl)-malononitrile] | > 75 | > 75 | – | –
CC(C)(C)c1cc(CC(C#N)(C#N)CCSC(F)(F)F)on1 [Compound I-35] | – | – | – | over 90%
